In patent publication US8071612B2, “6-alkenyl and 6-phenylalkyl substituted 2-quinolinones and 2-quinoxalinones as poly(ADP-ribose) polymerase inhibitors” (Janssen Pharmaceutica, NV, priority 2004, dated 2011):

How the values were obtained:
PARP-1 enzyme [1] = target: T1, PARP-1 enzyme (Homo sapiens, UniProt P09874); test: In vitro Scintillation Proximity Assay (SPA) for PARP-1 inhibitory activity; format: biochemical; settings: nicked DNA activated PARP-1, [3H]-NAD+, biotinylated histones; read-out: In vitro SPA pIC50 (converted)
T1 construct: made in house
Procedure, shortened: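 Human PARP-1 (5–10 μg/ml), activated by nicked DNA (2 μg/ml), ADP-ribosylated biotinylated histones (2 μg/ml) using [3H]-NAD+ as donor for 15 min at room temperature in Tris pH 8/DTT/MgCl2. The reaction was stopped with NAD+ (2 mM final) and read by SPA scintillation counting. IC50 was interpolated from blank-corrected % of control and reported as pIC50.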

PARP-1 enzyme [2] = target: T1, PARP-1 enzyme; test: In vitro filtration assay for PARP-1 inhibitory activity; format: biochemical; settings: nicked DNA activated PARP-1, [32P]-NAD, histones; read-out: In vitro filtration assay pIC50 (converted)
Experimental: Compounds of the present invention were tested in an in vitro filtration assay assessing PARP-1 activity (triggered in the presence of nicked DNA) by means of its histone poly (ADP-ribosyl)ation activity using [^32P]-NAD as ADP-ribosyl donor. The radioactive ribosylated histones were precipitated by trichloroacetic acid (TCA) in 96-well filterplates and the incorporated [^32P] measured using a scintillation counter
A mixture of histones (stock solution: 5 mg/ml in H2O), NAD (stock solution: 100 mM in H2O), and [^32P]-NAD^+ in incubation buffer (50 mM Tris/HCl, pH 8; 0.2 mM DTT; 4 mM MgCl2) was made. A mixture of the PARP-1 enzyme (5-10 μg/ml) and nicked DNA was also made. The nicked DNA was prepared as described in the in vitro SPA for PARP-1 inhibitory activity. Seventy-five μl of the PARP-1 enzyme/DNA mixture together with 1 μl of compound in DMSO and 25 μl of histones-NAD^+/[^32P]-NAD^+ mixture was added per well of a 96-well filterplate (0.45 μm, supplier Millipore). The final concentrations in the incubation mixture were 2 μg/ml for the histones, 0.1 mM for the NAD^+, […] (0.5 μC) for the [^32P]-NAD^+ and 2 μg/ml for the nicked DNA. Plates were incubated for 15 min. at room temperature and the reaction was terminated by the addition of 10 μl ice cold 100% TCA followed by the addition of 10 μl ice-cold BSA solution (1% in H2O). The protein fraction was allowed to precipitate for 10 min. at 4° C. and plates were vacuum filtered. The plates were subsequently washed with, for each well, 1 ml of 10% ice cold TCA, 1 ml of 5% ice cold TCA and 1 ml of 5% TCA at room temperature. Finally 100 μl of scintillation solution (Microscint 40, Packard) was added to each well and the plates were transferred to a TopCountNXT™ (supplier: Packard) for scintillation counting and values were expressed as counts per minute (cpm). For each experiment, controls (containing PARP-1 enzyme and DMSO without compound), a blank incubation (containing DMSO but no PARP-1 enzyme or compound) and samples (containing PARP-1 enzyme and compound dissolved in DMSO) were run in parallel. All compounds tested were dissolved and eventually further diluted in DMSO. In first instance, compounds were tested at a concentration of 10^−5M. […] In each test, the blank value was subtracted from both the control and the sample values. The control sample represented maximal PARP-1 enzyme activity. For each sample, the amount of cpm was expressed as a percentage of the mean cpm value of the controls. When appropriate, IC50-values (concentration of the drug, needed to reduce the PARP-1 enzyme activity to 50% of the control) were computed using linear interpolation between the experimental points just above and below the 50% level. Herein the effects of test compounds are expressed as pIC50 (the negative log value of the IC50-value). As a reference compound, 4-amino-1,8-naphthalimide was included to validate the filtration assay.

[3] = tested on: infarct size in the heart; settings: rabbits, cited from earlier work
colitis = settings: rats, colitis by intraluminal trinitrobenzene sulfonic acid in 50% ethanol; cited from earlier work

T1 sequence (P09874 whole entry): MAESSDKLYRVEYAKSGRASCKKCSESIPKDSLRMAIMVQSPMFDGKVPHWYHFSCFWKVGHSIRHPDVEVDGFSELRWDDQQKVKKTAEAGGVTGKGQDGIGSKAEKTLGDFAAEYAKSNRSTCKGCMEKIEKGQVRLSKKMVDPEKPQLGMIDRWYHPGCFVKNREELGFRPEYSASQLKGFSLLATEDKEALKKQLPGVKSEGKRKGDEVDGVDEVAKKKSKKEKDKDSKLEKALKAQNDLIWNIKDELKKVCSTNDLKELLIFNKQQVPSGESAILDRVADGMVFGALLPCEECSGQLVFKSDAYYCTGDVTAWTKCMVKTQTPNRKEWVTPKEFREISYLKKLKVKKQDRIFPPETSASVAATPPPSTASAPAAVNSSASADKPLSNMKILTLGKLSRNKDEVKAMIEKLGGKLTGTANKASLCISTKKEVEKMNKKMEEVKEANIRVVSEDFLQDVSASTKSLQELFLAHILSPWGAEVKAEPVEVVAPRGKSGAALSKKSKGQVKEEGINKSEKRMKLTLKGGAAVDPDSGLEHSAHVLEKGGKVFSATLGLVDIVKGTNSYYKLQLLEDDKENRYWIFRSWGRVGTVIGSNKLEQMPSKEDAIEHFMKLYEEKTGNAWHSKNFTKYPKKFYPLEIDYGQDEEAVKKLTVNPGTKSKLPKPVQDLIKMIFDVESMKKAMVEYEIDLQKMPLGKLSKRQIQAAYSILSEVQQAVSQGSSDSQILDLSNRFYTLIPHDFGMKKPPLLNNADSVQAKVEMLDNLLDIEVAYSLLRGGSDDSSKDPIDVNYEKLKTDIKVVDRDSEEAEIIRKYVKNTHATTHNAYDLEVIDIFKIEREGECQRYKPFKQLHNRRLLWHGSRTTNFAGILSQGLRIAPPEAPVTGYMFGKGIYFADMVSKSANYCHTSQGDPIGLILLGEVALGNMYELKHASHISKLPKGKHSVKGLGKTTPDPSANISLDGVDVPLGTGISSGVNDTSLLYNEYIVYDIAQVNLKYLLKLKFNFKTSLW

SMILES	IC50 (PARP-1 enzyme [1])	IC50 (PARP-1 enzyme [2])	melting point	reduction in infarct size ([3]; single injection 1 mg/kg)	effect on inflammatory response, morphology and energetic status of the distal colon (colitis)	reduction in infarct size in the heart ([3]; single injection 10 mg/kg, one minute before occlusion or one minute before reperfusion)
CCc1nc2cc(C(c3ccc(Cl)cc3)n3cncn3)ccc2[nH]c1=O (centres unmarked) [Compound 22]	366 nM	4050 nM	188 °C	–	–	–
CCc1cc2cc(C(OC(C)=O)c3ccccc3)ccc2[nH]c1=O (centres unmarked) [Compound 3]	407 nM	4340 nM	168.2 °C	–	–	–
Cc1cc2cc(C(C#N)c3ccccc3)ccc2[nH]c1=O (centres unmarked) [Compound 4]	435 nM	2670 nM	227.5 °C	–	–	–
Cc1cc2cc(C(c3ccccc3)n3cncn3)ccc2[nH]c1=O (centres unmarked) [Compound 5]	1400 nM	9440 nM	254.2 °C	–	–	–
CNC(c1ccccc1)c1ccc2[nH]c(=O)c(C)cc2c1 (centres unmarked) [Compound 1]	285 nM	2330 nM	174.3 °C	–	–	–
CCc1cc2cc(C(=C3CCN(CCc4ccc(OC)cc4)CC3)c3ccc4c(c3)OCCO4)ccc2[nH]c1=O [Compound 132]	57.1 nM	–	203 °C	–	–	–
CCc1cc2cc(C(NC=O)c3ccc4c(c3)OCCO4)ccc2[nH]c1=O (centres unmarked) [Compound 18]	19.5 nM	–	> 260 °C	–	–	–
CCc1nc2cc(CC(c3ccc(Cl)cc3)N3CCCC3)ccc2[nH]c1=O (centres unmarked) [Compound 21]	191 nM	–	194 °C	–	–	–
CCc1cc2cc(C(c3ccccc3)n3ccnc3)ccc2[nH]c1=O (centres unmarked) [Compound 17]	152 nM	619 nM	220.1 °C	–	–	–
CCc1cc2cc(C(=C3CCN(CC(O)COc4ccc(OC)cc4)CC3)c3ccc4c(c3)OCCO4)ccc2[nH]c1=O (centres unmarked) [Compound 133]	124 nM	–	219 °C	–	–	–
Oc1cccc2c(O)nccc12 [1,5-dihydroxyisoquinoline]	–	–	–	38-48%	–	–
CCc1nc2cc(CC(c3ccc(Cl)cc3)n3ccnc3)ccc2[nH]c1=O (centres unmarked) [Compound 20]	275 nM	1750 nM	270 °C	–	–	–
CCc1cc2cc(C(O)c3ccc4c(c3)OCO4)ccc2[nH]c1=O (centres unmarked) [Compound 12]	40.1 nM	–	211 °C	–	–	–
CCc1cc2cc(C(=C3CCNCC3)c3ccc4c(c3)OCCO4)ccc2[nH]c1=O [Compound 131]	27.7 nM	–	249 °C	–	–	–
Cc1cc2cc(C(c3ccccc3)N(C)C)ccc2[nH]c1=O (centres unmarked) [Compound 6]	957 nM	3940 nM	226.7 °C	–	–	–
CCc1cc2cc(C(CCN3CCCCC3)c3ccc4c(c3)OCCO4)ccc2[nH]c1=O (centres unmarked) [Compound 16]	9.2 nM	–	181 °C	–	–	–
CC(=O)NCC(c1ccccc1)c1ccc2[nH]c(=O)c(C)cc2c1 (centres unmarked) [Compound 8]	213 nM	2540 nM	206.2 °C	–	–	–
COC(c1ccccc1)c1ccc2[nH]c(=O)c(C)cc2c1 (centres unmarked) [Compound 9]	1800 nM	9400 nM	207.3 °C	–	–	–
NC(=O)c1cccc(N)c1 [3-amino-benzamide]	–	–	–	–	reduced the inflammatory response and restored the morphology and the energetic status of the distal colon	32-42%
